Laboratory results: patent US20060134794A1, “Method of detecting the presence and/or progression of cancer” (priority 2004, published 2006)
pEC50: −log10 of the molar value.

Tests used:
tNOX [1] = biological target: T1, tNOX (Homo sapiens, UniProt Q16206); assay: NOX assay with human mammary adenocarcinoma (BT-20) cells: tNOX; format: cell-based; set-up: endogenous in cells; details: 100 μM AgO; 2×10^6 BT-20 cells
T1 sequence (Q16206 1-610): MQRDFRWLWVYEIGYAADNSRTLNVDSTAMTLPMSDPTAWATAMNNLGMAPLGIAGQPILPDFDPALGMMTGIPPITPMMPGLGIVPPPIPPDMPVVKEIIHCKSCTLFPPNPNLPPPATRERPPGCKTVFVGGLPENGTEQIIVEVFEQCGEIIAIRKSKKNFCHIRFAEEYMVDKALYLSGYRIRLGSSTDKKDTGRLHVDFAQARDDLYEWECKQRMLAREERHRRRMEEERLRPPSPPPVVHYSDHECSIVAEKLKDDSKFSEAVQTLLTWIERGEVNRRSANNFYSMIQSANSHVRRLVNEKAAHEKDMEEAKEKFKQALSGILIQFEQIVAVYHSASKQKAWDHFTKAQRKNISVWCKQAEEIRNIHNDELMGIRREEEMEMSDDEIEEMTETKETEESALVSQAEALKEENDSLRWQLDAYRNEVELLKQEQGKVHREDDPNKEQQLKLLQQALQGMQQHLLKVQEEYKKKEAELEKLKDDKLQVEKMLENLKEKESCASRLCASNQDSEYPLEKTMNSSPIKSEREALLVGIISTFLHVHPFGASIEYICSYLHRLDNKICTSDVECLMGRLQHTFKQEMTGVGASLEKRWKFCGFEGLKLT
Protocol: (§1) FIG. 5 presents results from an assay using 2×10^6 human mammary adenocarcinoma (BT-20) cells carried out as described for FIG. 2. Panel A (no addition) received only the phosphoric acid (0.0017%).
(§2) Growth of cells. Cells were grown in culture in a humidified atmosphere of 5% CO2 in air at 37° C. Media were renewed every 2 to 3 days. HeLa (ATCC CCL2) cells were grown in 175-cm^2 flasks in Minimal Essential Medium (Gibco), pH 7.4 at 37° with 10% fetal bovine serum (heat-inactivated), plus 50 mg/L gentamycin sulfate (Sigma). Cells were harvested by scraping and taken up in 140 mM NaCl, 5 mM KCl, 0.7 mM Na2HPO4 and 25 mM Tris, pH 7.4, to a final cell concentration of 0.1 g wet weight (gww) per mL. MCF-10A human mammary epithelial cells were cultured in a 1:1 mixture of Ham's F12 medium and Dulbecco's Modified Eagle's medium containing glutamine (Z92 mg/L), hydrocortisone (0.5 μg/mL), EGF (20 ng/mL), and 5% horse serum. Medium was renewed every 2-3 days. […]
(§3) Spectrophotometric assay of NADH Oxidase. NAD(P)H oxidase activities were measured using paired Hitachi U3210 spectrophotometers over successive 5-minutes intervals (two to four or more at low inhibitory concentrations) at 37° C. The activity was determined as the disappearance of NAD(P)H measured at 340 nm. […]

constitutive CNOX [2] = biological target: T2, constitutive CNOX (Homo sapiens, UniProt Q8TC92); assay: NOX (NADH oxidase) assay of solubilized ECTO-NOX activities released from the surface of HeLa cells: CNOX; format: biochemical; set-up: solubilized ECTO-NOX activities released from the surface of HeLa cells by treatment at pH 5; endogenous in cells; host or cells: HeLa S cells, cell-free pH 5 extract
T2 sequence (Q8TC92 1-643): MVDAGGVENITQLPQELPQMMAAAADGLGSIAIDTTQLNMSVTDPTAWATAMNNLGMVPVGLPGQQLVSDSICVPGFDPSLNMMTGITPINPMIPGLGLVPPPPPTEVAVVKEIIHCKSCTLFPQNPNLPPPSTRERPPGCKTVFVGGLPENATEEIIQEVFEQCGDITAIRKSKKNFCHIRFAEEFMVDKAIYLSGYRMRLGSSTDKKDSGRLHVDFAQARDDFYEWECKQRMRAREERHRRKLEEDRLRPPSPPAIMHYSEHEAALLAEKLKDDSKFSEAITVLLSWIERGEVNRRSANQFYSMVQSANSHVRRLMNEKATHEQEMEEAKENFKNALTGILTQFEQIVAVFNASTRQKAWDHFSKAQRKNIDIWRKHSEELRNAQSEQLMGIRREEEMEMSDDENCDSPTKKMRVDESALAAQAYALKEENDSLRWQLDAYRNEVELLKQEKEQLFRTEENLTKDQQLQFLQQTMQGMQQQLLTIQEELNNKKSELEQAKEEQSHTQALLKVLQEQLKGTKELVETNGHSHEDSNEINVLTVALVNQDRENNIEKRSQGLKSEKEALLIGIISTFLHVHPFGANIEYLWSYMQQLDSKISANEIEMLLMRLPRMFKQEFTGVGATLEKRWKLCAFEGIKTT
Protocol: (§4) FIG. 2 is similar to FIG. 1 except that a preparation of solubilized ECTO-NOX activities released from the surface of HeLa cells by treatment at pH 5 (del Castillo-Olivares et al., Arch. Biochem. Biophys. 358: 125-140, 1998) was used as the enzyme source. The AgO was dissolved in DMSO added at a final concentration of AgO of 1 mM. The final concentration of DMSO added in both A and B after 45 minutes was 0.1%. The assays were then continued for and additional 45 minutes. The HeLa extracts contain both the constitutive CNOX (single arrows denoting a 24 minutes period length) and two activity maxima separated by 6 minutes and labeled (1) and (2) which are tNOX (double arrows). With addition of AgO, both tNOX activities are inhibited while the constitutive CNOX remain unaffected. Values are based on three experiments and report means±standard deviations to establish statistical reliability of the data.
FIG. 3 represents the response of total NOX (NADH oxidase) activity of the preparation of FIG. 2 as a function of the logarithm of AgO concentration. […]
as §3

[3] = biological target: T3, recombinant form of tNOX (nus tNOX) (Homo sapiens, UniProt Q16206); assay: standard NOX assay (oxidation of NADH, decrease in A340) with recombinant tNOX; format: biochemical; details: 100 μM AgO in 1.7% phosphoric acid added after 45 minutes; 25° C
T3 construct: nus tag
T3 sequence (Q16206 1-610): T1 sequence (Q16206 1-610)
Protocol: In panel A, an equivalent amount of phosphoric acid was added. The assay measured oxidation of NADH (decrease in A340) in a standard NOX assay at 25° C.
(§5) Spectrophotometric assay of NADH Oxidase. NAD(P)H oxidase activities were measured using paired Hitachi U3210 spectrophotometers over successive 5-minutes intervals (two to four or more at low inhibitory concentrations) at 37° C. The activity was determined as the disappearance of NAD(P)H measured at 340 nm. The reaction mixture included sample, 50 mM Tris-MES, pH 7.0, 2 mM KCN, and 150 μM NAD(P)H in a total volume of 2.5 ml at 37° C. with stirring. A millimolar extinction coefficient of 6.22 was used to determine NAD(P)H disappearance.

age-related NOX (arNOX) = assay: NOX assay with human mammary epithelial (non-cancer) MCF-10A cells: arNOX; format: cell-based; details: 100 μM AgO added in 1.7% phosphoric acid; late passage MCF-10A cells
Protocol: (§6) FIG. 6 is as for FIG. 5 except that the assay was with 10^6 human mammary epithelial (non-cancer) MCF-10A cells. These cells lacked tNOX as their surface and contained predominantly a constitutive CNOX (single arrows) which was not inhibited by the 100 μM AgO added in 1.7% phosphoric acid. The MCF-10A cells were late passage cells and contained, as well, an age-related NOX (arNOX) with a period length of 26 minutes. This activity was inhibited by the AgO as shown in Panel B.
as §2, with “mL.” for “mL. MCF-10A human mammary epithelial cells were cultured in a 1:1 mixture of Ham's F12 medium and Dulbecco's Modified Eagle's medium containing glutamine (Z92 mg/L), hydrocortisone (0.5 μg/mL), EGF (20 ng/mL), and 5% horse serum. Medium was renewed every 2-3 days.”
as §3

constitutive CNOX [4] = biological target: T2, constitutive CNOX; assay: NOX assay with human mammary adenocarcinoma (BT-20) cells: CNOX; format: cell-based; set-up: endogenous in cells; details: 100 μM AgO; 2×10^6 BT-20 cells
Protocol: as §1, §2, §3

tNOX [5] = biological target: T1, tNOX; assay: NOX (NADH oxidase) assay of solubilized ECTO-NOX activities released from the surface of HeLa cells: tNOX; format: biochemical; set-up: solubilized ECTO-NOX activities released from the surface of HeLa cells by treatment at pH 5; endogenous in cells; host or cells: HeLa S cells, cell-free pH 5 extract
Protocol: as §4
FIG. 3 represents the response of total NOX (NADH oxidase) activity of the preparation of FIG. 2 as a function of the logarithm of AgO concentration. The AgO was dissolved in 1.7% phosphoric acid and the dilutions were prepared in water. […] The EC50 of tNOX inhibition was estimated to be about 5 μM.
as §5
Preparation of HeLa Cells and Cell-Free Extracts. HeLa S cells were collected by centrifugation and shipped frozen in 0.1 M sodium acetate, pH 5, in a ratio of 1 mL of packed cell volume to 1 mL of acetate (Cellex Biosciences). The cells were thawed at room temperature, resuspended, and incutated at 37° for 1 hr to release the protein. […]

constitutive CNOX [6] = biological target: T2, constitutive CNOX; assay: NOX assay with human mammary epithelial (non-cancer) MCF-10A cells: CNOX; format: cell-based; set-up: solubilized ECTO-NOX activities released from the surface of HeLa cells by treatment at pH 5; endogenous in cells; host or cells: HeLa S cells, cell-free pH 5 extract; details: 100 μM AgO added in 1.7% phosphoric acid; 10^6 MCF-10A cells
Protocol: as §6
as §2, with “mL.” for “mL. MCF-10A human mammary epithelial cells were cultured in a 1:1 mixture of Ham's F12 medium and Dulbecco's Modified Eagle's medium containing glutamine (Z92 mg/L), hydrocortisone (0.5 μg/mL), EGF (20 ng/mL), and 5% horse serum. Medium was renewed every 2-3 days.”
as §3

constitutive CNOX [7] = assay: NOX assay with solubilized soybean plasma membranes; format: biochemical, soybean (Glycine max); details: plasma membranes solubilized in 0.1% Triton X-100 overnight
Protocol: FIG. 7 is similar to FIG. 6 except that plasma membranes isolated from etiolated hypocotyls (stems) of soybean (Glycine max) were the enzyme source. The plasma membranes were solubilized in 0.1% Triton X-100 overnight prior to assay. The soybean plasma membranes contain only a constitutive CNOX which is unresponsive to AgO.
as §5

[8] = tested on: aging-related isoform (arNOX); details: previous findings described in the background; cited from earlier work
[9] = AgO dissolved in DMSO, final concentration 1 mM, added after 45 minutes

## [O]=[Ag] [AgO, silver (II) oxide]
tNOX [1]
  inhibition of the two activity maxima associated with tNOX: inhibited
Constitutive CNOX [2]; AgO concentration series in 1.7% phosphoric acid/water
  inhibition of constitutive CNOX: not inhibited
Constitutive CNOX [2]; [9]
  effect on constitutive CNOX activity: unaffected
[3]
  inhibition of recombinant tNOX NADH oxidase activity: inhibited completely
age-related NOX (arNOX)
  inhibition of age-related NOX (arNOX) activity: inhibited
Constitutive CNOX [4]
  effect on constitutive CNOX: without effect
tNOX [5]; AgO concentration of 100 μM (10^−4M)
  inhibition of tNOX: completely inhibited
tNOX [5]; AgO dissolved in 1.7% phosphoric acid, dilutions in water, estimated from total NOX activity, read-out: EC50 of tNOX inhibition
  pEC50: ~5.30
tNOX [5]; [9]
  inhibition of tNOX activities: inhibited
Constitutive CNOX [6]
  inhibition of constitutive CNOX: not inhibited
Constitutive CNOX [7]
  response of constitutive CNOX to AgO: unresponsive

## COC1=C(OC)C(=O)C(C/C=C(\C)CC/C=C(\C)CC/C=C(\C)CC/C=C(\C)CC/C=C(\C)CC/C=C(\C)CC/C=C(\C)CC/C=C(\C)CC/C=C(\C)CCC=C(C)C)=C(C)C1=O [coenzyme Q]
[8]
  effect on generation of superoxide by arNOX: inhibition
